From patent publication US10472395B2, “Cyclic peptide analogs and conjugates thereof” (Sirenas LLC, priority 2015, dated 2019)
pIC50: −log10 of the molar value. Numbered stars: 1 amine (or outer) side, 2 acyl side, 3 side chain; on linkers, the order of the positions; unused ones are H or OH. Bridge positions count the residues as written; N and C are the ends. Square brackets hold non-standard residues; d marks the D form. Peptide text beside a SMILES is read from it. ξ: configuration not given here. X12 = CC/C=C(\C)[C@@H](O[*:2])[C@@H](C)[C@@H](O)C/C=C(\C)C(=O)[*:1]; X1 = C/C(=C\CC[C@@H](C)CO[*:2])C(=O)[*:1]; Hmp(2R,3S) = CC[C@H](C)[C@@H](O)C(=O)O; dNMeF = CN[C@H](Cc1ccccc1)C(=O)O; Ile(3ξ) = CCC(C)[C@H](N)C(=O)O; dHica = CC(C)C[C@@H](O)C(=O)O; dNMeL = CN[C@H](CC(C)C)C(=O)O; NMeA = CN[C@@H](C)C(=O)O; Sar = CNCC(=O)O

Assays:
[1] = test system: BT-474 human mammary gland ductal carcinoma cells; test: Inhibitory response of test compounds against BT-474 cells (Cell Titer-Glo, 72 h); assay type: cell-based; details: Homo sapiens
Experimental: (§1) BT-474 human mammary gland ductal carcinoma cells were seeded in a clear polystyrene 96-well microculture plate (Corning® Costar® 96-well flat bottom plate, Cat.#3997) in a total volume of 90 μL/well. After 24 hours of incubation in a humidified incubator at 37° C. with 5% CO2 and 95% air, 10 μL of 10×, serially diluted test agents in growth medium were added to each well (10 pt dose response curve, highest concentration 10 μM of test agent). After 72 hours of culture in a humidified incubator at 37° C., in an atmosphere of 5% CO2 and 95% air, the plated cells and Cell Titer-Glo® (Promega G7571) reagents were brought to room temperature to equilibrate for 30 minutes. 100 μL of Cell Titer-Glo® reagent was added to each well. The plate was shaken for two minutes and then left to equilibrate for ten minutes. The media/Cell Titer-Glo® reagent was transferred to a white polystyrene 96-well microculture plate (Corning® Costar® 96-well flat bottom plate, Cat.#3917) before reading luminescence on a Tecan GENios microplate reader.
(§2) Percent inhibition of cell growth was calculated relative to untreated control wells. The IC50 value for the test agents was determined using Prism 6.05 by curve-fitting of the data using the following four parameter-logistic equation:
(§3) [formula] where Top is the maximal % of control absorbance, Bottom is the minimal % of control absorbance at the highest agent concentration, Y is the % of control absorbance, X is the agent concentration, IC50 is the concentration of agent that inhibits cell growth by 50% compared to the control cells, and n is the slope of the curve.

HCC1954 cells = test: Inhibitory response of test compounds against HCC1954 cells (method analogous to BT-474); assay type: cell-based; details: Homo sapiens
Experimental: as §1, §2, §3
Inhibitory response of test compounds against HCC1954 cells was determined using a method analogous to that used for BT-474 cells.

[2] = test system: several cancer cell lines; details: Y. Nakao et al., J. Nat. Prod. 2004, 67, 1332-1340; cited from earlier work
HeLa S3 cells = details: K. Suenaga et al., Bioorg. Med. Chem. Lett. 2008, 18, 3902-3905; cited from earlier work

Structure (SMILES) | pIC50 [1] | pIC50 ([1]; 72 h, Cell Titer-Glo) | pIC50 (HCC1954 cells) | cytotoxicity against several cancer cell lines [2] | cytotoxicity against HeLa S3 cells (HeLa S3 cells)
C/C=C(\C)[C@H]1OC(=O)[C@@H](C)NC(=O)[C@H](C(C)CC)NC(=O)CN(C)C(=O)[C@@H](Cc2ccccc2)N(C)C(=O)[C@H](C)NC(=O)[C@@H](CC(C)C)OC(=O)/C(C)=C/C[C@H](O)[C@@H]1C (some centres unmarked) [Kulo-2, kulo-2, reference compound] | > 7.70 | 8.75 | > 7.70 | potent cytotoxicity | 
CC/C=C(\C)[C@H]1OC(=O)[C@H](C)N(C)C(=O)[C@H](C(C)C)NC(=O)CN(C)C(=O)[C@@H](CC(C)C)N(C)C(=O)[C@H](C(C)C)NC(=O)[C@@H]([C@@H](C)CC)OC(=O)/C(C)=C/C[C@H](O)[C@@H]1C [Aurilide, aurilide] ([Hmp(2R,3S)]V[dNMeL][Sar]V[NMeA]; linker N-C via X12) |  |  |  |  | potent cytotoxicity
C/C=C(\C)[C@H]1OC(=O)[C@@H](C)NC(=O)[C@H](C(C)CC)NC(=O)CN(C)C(=O)[C@@H](Cc2ccccc2)N(C)C(=O)[C@H](C)NC(=O)[C@@H](CC(C)C)OC(=O)/C(C)=C/C=C/[C@@H]1C (some centres unmarked) [Compound 69] | > 7.70 |  | > 7.70 |  | 
C/C=C(\C)[C@H]1OC(=O)[C@@H](C)NC(=O)[C@H]([C@H](C)CC)NC(=O)CN(C)C(=O)[C@@H](Cc2ccccc2)N(C)C(=O)[C@H](CCCCNC(=O)OC(C)(C)C)NC(=O)[C@@H](CC(C)C)OC(=O)/C(C)=C/C[C@H](O)[C@@H]1C [Compound 96] | > 7.70 |  | > 7.70 |  | 
C/C=C(\C)[C@H]1OC(=O)[C@@H](C)NC(=O)[C@H]([C@H](C)CC)NC(=O)CN(C)C(=O)[C@@H](Cc2ccccc2)N(C)C(=O)[C@H](C)NC(=O)[C@@H](CC(C)C)OC(=O)/C(C)=C/C[C@H](OC(=O)N(C)CCN(C)C(=O)OCC[Si](C)(C)C)[C@@H]1C [Compound 117] | 6.70 to 7.70 |  | 6.70 to 7.70 |  | 
C/C=C(\C)[C@H]1OC(=O)[C@@H](CCCCN)NC(=O)[C@H](C(C)CC)NC(=O)CN(C)C(=O)[C@@H](Cc2ccccc2)N(C)C(=O)[C@H](C)NC(=O)[C@@H](CC(C)C)OC(=O)/C(C)=C/C[C@H](O)[C@@H]1C (some centres unmarked) [Compound 84] | 5.00 to 6.70 |  | 5.00 to 6.70 |  | 
C/C=C(\C)[C@H]1OC(=O)[C@@H](C)NC(=O)[C@H]([C@H](C)CC)NC(=O)CN(C)C(=O)[C@@H](Cc2ccccc2)N(C)C(=O)[C@H](C)NC(=O)[C@@H](CC(C)C)OC(=O)/C(C)=C/C[C@H](CC(=O)N(C)CCN(C)C(=O)c2ccc(C=O)cc2)[C@@H]1C [Compound 110] | > 7.70 |  | 6.70 to 7.70 |  | 
CCC(C)[C@@H]1NC(=O)CN(C)C(=O)[C@@H](Cc2ccccc2)N(C)C(=O)[C@H](C)NC(=O)[C@@H](CC(C)C)OC(=O)/C(C)=C/CC[C@@H](C)COC(=O)[C@@H](C)NC1=O (some centres unmarked) [Compound 92] ([dHica]A[dNMeF][Sar][Ile(3ξ)][dA]; linker N-C via X1) | 5.00 to 6.70 |  | 5.00 to 6.70 |  | 
